Literature values, collected in patent publication US11931418B2, “Methods of treating severe inflammation” (Ashvattha Therapeutics, Inc., priority 2020, dated 2024).

System: SARS-CoV-2 patients
Details: COVID-19 patients

lopinavir-ritonavir
clinical benefit: no benefit observed
